From article PMC8509773, “3-Pyridinylidene Derivatives of Chemically Modified Lupane and Ursane Triterpenes as Promising Anticancer Agents by Targeting Apoptosis” (International Journal of Molecular Sciences, 2021)
Marks after values point to notes of the source that are not given here.

How the values were obtained:
[1] = system: NCI-60 cancer cell line panel; assay: NCI-60 cancer cell line panel screening (whole panel / subpanels); format: cell-based; conditions: for Selectivity index (SI): full panel MG_MID / subpanel MG_MID
Experimental: At first, compounds were tested in a single high dose concentration regimen (10 µM) against a panel of sixty various cancer cell lines; the results of the screening are outlined in Table 1 in the form of percent growth (GP %) of treated cells versus untreated cells used as control, where negative numbers indicate cell kill. The experimental results of growth inhibition may range from 0 to 100 and indicate a cytostatic effect while negative values indicate cell death and thus a cytotoxic activity (for NCI data see Supplementary Material Figures S6–S12).
The selectivity index (SI) was calculated by dividing the full panel MG_MID60 (μM) of tested compounds by their individual subpanel MG_MID of the cell line (μM); it correlates directly to the selectivity of their anticancer activity (Table 3). […] By contrast, despite its strong antiproliferative effect, compound 7 acts with low selectivity against the various human tumor cell lines, the highest SI value being 1.73.
Compounds 1, 2, and 4–8 were tested at one dose assay (10^−5 M) toward a panel of approximately sixty cancer cell lines representing different cancer types: leukemia, melanoma, lung, colon, CNS, ovarian, renal, prostate, and breast cancers. Primary anticancer assays were performed according to the NCI protocol as described elsewhere (see, e.g., http://dtp.nci.nih.gov accessed on 16 October 2019). The compounds were added at a single concentration and the cell cultures were incubated for 48 h. The end point determinations were made with a protein binding dye, sulforhodamine B (SRB). The results for each compound are reported as the percent growth (GP %) of treated cells compared to untreated control cells (negative numbers indicate cell kill). Compounds with considerable activity against all tested human tumor cell lines (6 and 7) were selected for the advanced assay against a panel of approximately sixty tumor cell lines at 10-fold dilutions of five concentrations (100 µM, 10 µM, 1 µM, 0.1 µM, and 0.01 µM). The percentage of growth was evaluated spectrophotometrically versus controls not treated with test agents after 48-h exposure and using SRB protein assay to estimate cell viability or growth. Three antitumor activity dose–response parameters were calculated for each cell line: GI50—molar concentration of the compound that inhibits 50% net cell growth; TGI—molar concentration of the compound leading to the total inhibition; and LC50—molar concentration of the compound leading to 50% net cell death (presented in negative logarithm). Furthermore, mean graph midpoints (MG_MID) were calculated for each of the parameters, giving an average activity parameter over all cell lines for the tested compound. For the MG_MID calculation, insensitive cell lines were included with the highest concentration tested.

HT29 = assay: NCI-60 SRB screening (one-dose and five-dose); format: cell-based, human; conditions: 48 h
Outline: (§1)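 After a 48-h incubation with compound, cellular protein was stained with SRB and growth estimated by spectrophotometry relative to untreated controls.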

ACHN = assay: NCI-60 SRB screening (one-dose and five-dose); format: cell-based, human; conditions: 48 h
Outline: (§2)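 Spectrophotometric SRB end point; 48-h drug exposure; percent of untreated-control growth reported.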

SK-MEL-28 = assay: NCI-60 SRB screening (one-dose and five-dose); format: cell-based, human; conditions: 48 h
Outline: as §1

SN12C = assay: NCI-60 SRB screening (one-dose and five-dose); format: cell-based, human; conditions: 48 h
Outline: (§3)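 Cells received compound at one concentration for 48 h. Growth was read by sulforhodamine B protein staining, as percentage versus untreated controls. Mean graph midpoints averaged each parameter over all cell lines, with insensitive lines entered at the highest tested concentration.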

NCI-H23 = assay: NCI-60 SRB screening (one-dose and five-dose); format: cell-based, human; conditions: 48 h
Outline: as §1

M14 = assay: NCI-60 SRB screening (one-dose and five-dose); format: cell-based, human; conditions: 48 h
Outline: as §3

MOLT-4 = assay: NCI-60 SRB screening (one-dose and five-dose); format: cell-based, human; conditions: 48 h
Outline: as §3

HS 578T = assay: NCI-60 SRB screening (one-dose and five-dose); format: cell-based, human; conditions: 48 h
Outline: as §1

MALME-3M = assay: NCI-60 SRB screening (one-dose and five-dose); format: cell-based, human; conditions: 48 h
Outline: as §2

OVCAR-3 = assay: NCI-60 SRB screening (one-dose and five-dose); format: cell-based, human; conditions: 48 h
Outline: as §2

UACC-62 = assay: NCI-60 SRB screening (one-dose and five-dose); format: cell-based, human; conditions: 48 h
Outline: as §2

DU-145 = assay: NCI-60 SRB screening (one-dose and five-dose); format: cell-based, human; conditions: 48 h
Outline: as §1

OVCAR-4 = assay: NCI-60 SRB screening (one-dose and five-dose); format: cell-based, human; conditions: 48 h
Outline: as §1

SNB-19 = assay: NCI-60 SRB screening (one-dose and five-dose); format: cell-based, human; conditions: 48 h
Outline: as §2

CCRF-CEM = assay: NCI-60 SRB screening (one-dose and five-dose); format: cell-based, human; conditions: 48 h
Outline: as §1

PC-3 = assay: NCI-60 SRB screening (one-dose and five-dose); format: cell-based, human; conditions: 48 h
Outline: as §2

CAKI-1 = assay: NCI-60 SRB screening (one-dose and five-dose); format: cell-based, human; conditions: 48 h
Outline: as §1

OVCAR-8 = assay: NCI-60 SRB screening (one-dose and five-dose); format: cell-based, human; conditions: 48 h
Outline: as §1

KM-12 = assay: NCI-60 SRB screening (one-dose and five-dose); format: cell-based, human; conditions: 48 h
Outline: as §2

TK-10 = assay: NCI-60 SRB screening (one-dose and five-dose); format: cell-based, human; conditions: 48 h
Outline: as §3

SR = assay: NCI-60 SRB screening (one-dose and five-dose); format: cell-based, human; conditions: 48 h
Outline: as §3

Bak gene = assay: rtPCR gene expression in Sk-Mel-28 cells; format: cell-based, human
From the text: (§4) We applied rtPCR techniques in order to investigate the effect of our two compounds on the anti-apoptotic Bcl-XL and Bcl-2 genes as well as the proapoptotic Bak and Bad genes (Table 4). […] Therefore, we may presume that the apoptotic mechanism of both compounds against the A375 cells is not mediated by the tested genes or that alterations in their ratio are the underlying mechanism.

Bcl-XL gene = assay: rtPCR gene expression in Sk-Mel-28 cells; format: cell-based, human
From the text: as §4

[2] = Homo sapiens, five dose 0.01–100 μM

COC(=O)[C@]12CC[C@@H](C(=O)/C=C/c3cccnc3)[C@@H]1[C@H]1CC[C@@H]3[C@@]4(C)C/C(=C\c5cccnc5)C(=O)C(C)(C)[C@@H]4CC[C@@]3(C)[C@]1(C)CC2 [Compound 7, methyl 2,30-bis-(3-pyridinylidene)-3,20-dioxo-lup-28-oate]
Selectivity index (SI) ([1]; Breast Cancer subpanel): 1.34
Selectivity index (SI) ([1]; CNS Cancer subpanel): 0.72
Selectivity index (SI) ([1]; Colon Cancer subpanel): 1.07
GI50 ([1]; Homo sapiens, five-dose testing, all cell lines, read-out: GI50 values, range over the NCI-60 panel): 180 to 1530 nM
Selectivity index (SI) ([1]; Leukemia subpanel): 1.73
Selectivity index (SI) ([1]; Melanoma subpanel): 1.59
Selectivity index (SI) ([1]; Non-Small Cell Lung Cancer subpanel): 0.65
Selectivity index (SI) ([1]; Ovarian Cancer subpanel): 0.98
Selectivity index (SI) ([1]; Prostate Cancer subpanel): 0.50
Selectivity index (SI) ([1]; Renal Cancer subpanel): 1.23
Growth Percent (HT29; HT29, 10 μM): −45.47%
GI50 (HT29; Homo sapiens, HT-29, HT29, five dose 0.01–100 μM): 320 nM
Growth Percent (ACHN; 10 μM): −100.00%
GI50 (ACHN; [2]): 190 nM
GI50 (SK-MEL-28; Homo sapiens, SK-MEL-28, five dose 0.01–100 μM): 240 nM
Growth Percent (SK-MEL-28; SK-MEL-28, 10 μM): −96.28%
Growth Percent (SN12C; 10 μM): −77.80%
GI50 (SN12C; [2]): 390 nM
GI50 (NCI-H23; Homo sapiens, NCI-H23, five dose 0.01–100 μM): 350 nM
Growth Percent (NCI-H23; NCI-H23, 10 μM): −48.31%
GI50 (M14; Homo sapiens, M14, five dose 0.01–100 μM): 310 nM
Growth Percent (M14; M14, 10 μM): −80.31%
GI50 (MOLT-4; Homo sapiens, MOLT-4, five dose 0.01–100 μM): 300 nM
Growth Percent (MOLT-4; MOLT-4, 10 μM): −31.34%
Growth Percent (HS 578T; 10 μM): −49.05%
GI50 (HS 578T; [2]): 460 nM
Growth Percent (MALME-3M; 10 μM): −95.19%
GI50 (MALME-3M; [2]): 210 nM
GI50 (OVCAR-3; Homo sapiens, OVCAR-3, five dose 0.01–100 μM): 270 nM
Growth Percent (OVCAR-3; OVCAR-3, 10 μM): −93.24%
GI50 (UACC-62; Homo sapiens, UACC-62, five dose 0.01–100 μM): 400 nM
Growth Percent (UACC-62; UACC-62, 10 μM): −67.85%
Growth Percent (DU-145; DU-145, 10 μM): −67.84%
GI50 (DU-145; Homo sapiens, DU-145, five dose 0.01–100 μM): 1530 nM
GI50 (OVCAR-4; Homo sapiens, OVCAR-4, five dose 0.01–100 μM): 340 nM
Growth Percent (OVCAR-4; OVCAR-4, 10 μM): −39.20%
GI50 (SNB-19; Homo sapiens, SNB-19, five dose 0.01–100 μM): 690 nM
Growth Percent (SNB-19; SNB-19, 10 μM): −87.62%
Growth Percent (CCRF-CEM; 10 μM): 0.95%
GI50 (CCRF-CEM; [2]): 310 nM
GI50 (PC-3; Homo sapiens, PC-3, five dose 0.01–100 μM): 420 nM
Growth Percent (PC-3; PC-3, 10 μM): −14.12%
Growth Percent (CAKI-1; CAKI-1, 10 μM): −78.75%
GI50 (CAKI-1; Homo sapiens, CAKI-1, five dose 0.01–100 μM): 1090 nM
GI50 (OVCAR-8; Homo sapiens, OVCAR-8, five dose 0.01–100 μM): 340 nM
Growth Percent (OVCAR-8; OVCAR-8, 10 μM): −34.25%
GI50 (KM-12; Homo sapiens, KM12, KM-12, five dose 0.01–100 μM): 1080 nM
Growth Percent (KM-12; KM-12, 10 μM): −74.98%
GI50 (TK-10; Homo sapiens, TK-10, five dose 0.01–100 μM): 650 nM
Growth Percent (TK-10; TK-10, 10 μM): −60.49%
Growth Percent (SR; 10 μM): −14.07%
GI50 (SR; [2]): 270 nM
Bak gene expression, Mean (Bak gene): 59.543 **
Bcl-XL gene expression, Mean (Bcl-XL gene): 3.826
